Data on 40 compounds can be found in a melting point compilation (Tetko et al.).

Residues, ends and D or L forms follow the SMILES beside them. *: point of attachment. Trt = c1ccc(C(c2ccccc2)(c2ccccc2)*)cc1; Butoxycarbonyl = CCCCOC(=O)*; Boc = CC(C)(C)OC(=O)*; Bn = c1ccc(C*)cc1; NHNH2 = NN*

As to `COc1cc(OC)c(/C=C/C(c2ccc(OC)c(NC(=N)N)c2)S(=O)(=O)C(/C=C/c2c(OC)cc(OC)cc2OC)c2ccc(OC)c(NC(=N)N)c2)c(OC)c1` (stereo not given), the melting point (as a rule, the temperature, or range, at which the solid turns liquid) was 174 to 176 °C.

As to `CCOC(=O)c1c(I)c(NS(=O)(=O)c2cccc3c(N(C)C)cccc23)c(I)c(N(CC)C(C)=O)c1I`, the melting point is 238 to 240 °C.

The compound `FC(F)OC(Cl)C(F)(F)F` (stereo not given) registered a melting point of -108 °C.

Consider `CCSC(C)CC1CC(=O)C(=C(CC)NOCC=CCl)C(=O)C1` (stereo not given), for which the melting point is less than 25 °C.

With `CCCCOC(=O)NC(COCc1ccccc1)C(=O)NC(Cc1c[nH]c2ccccc12)C(=O)NC(CO)C(=O)NC(Cc1ccc(O)cc1)C(=O)NC(Cc1ccccc1)C(=O)NC(CC(C)C)C(=O)OC` (stereo not given) (Butoxycarbonyl-S(Bn)WSYFL-OMe; configuration not given here), the melting point lay in the range of 200 to 202 °C.

For the compound `Cc1ccc(C(=O)Oc2ccc3c(OC(=O)c4ccc(C)c(OCc5ccccc5)c4)c4ccccc4cc3c2OC(=O)c2ccc(C)c(OCc3ccccc3)c2)cc1OCc1ccccc1`, the melting point is 132 to 135 °C.

Consider `Cc1ccnc2nc(SCc3ccccc3)nn12`, for which the melting point was 102 to 104 °C.

`CC1(C)CC(Oc2nc(N(C3CC(C)(C)N(O)C(C)(C)C3)C3CC(C)(C)N(O)C(C)(C)C3)nc(N(C3CC(C)(C)N(O)C(C)(C)C3)C3CC(C)(C)N(O)C(C)(C)C3)n2)CC(C)(C)N1O` registered a melting point of 233 to 236 °C.

As for `Clc1c(Br)c(Cl)c(COCc2c(Cl)c(Br)c(Cl)c(Br)c2Br)c(Br)c1Br`, the melting point fell in the range of 274 to 276 °C.

With `CSc1ccc2c3c(cccc13)C(=O)N(O)C2=O`, the melting point is 301 to 306 °C.

In the case of `Cc1nc(C(=O)Cl)c(C)o1`, the melting point is 37.7 °C.

`CC(C)(C)c1cc(CCC(=O)OCCOc2ccc(C(C)(C)c3ccc(OCCOC(=O)CCc4cc(C(C)(C)C)c(O)c(C(C)(C)C)c4)cc3)cc2)cc(C(C)(C)C)c1O`: the melting point was in the range of 104 to 106 °C.

Turning to `COc1c(Cl)nc(-c2ccc(Cl)c(OC)c2F)nc1Cl`, the melting point fell in the range of 137 to 138 °C.

`CC(C)CC(NC(=O)OC(C)(C)C)C(=O)NCC(=O)NCC(=O)NC(C)C(=O)NCC(=O)NC(CSC(c1ccccc1)(c1ccccc1)c1ccccc1)C(=O)NC(CCCCNC(=O)OC(C)(C)C)C(=O)NC(CC(N)=O)C(=O)NC(Cc1ccccc1)C(=O)NC(Cc1ccccc1)C(=O)NN` (stereo not given) (Boc-LGGAGC(Trt)K(Boc)NFF-NHNH2; configuration not given here) came in with a melting point of 239 to 242 °C.

Compound `CCC(CC)NC(=O)c1ccc(-c2scc(-c3ccccc3Cl)c2CC(=O)OC)cc1` returned a melting point of 57 to 59 °C.

Take `CN1C(=O)C(Br)=C(c2cn(C3OC(COCc4ccccc4)C(OCc4ccccc4)C(OCc4ccccc4)C3OCc3ccccc3)c3ccccc23)C1=O` (stereo not given): the melting point was determined as 55 °C.

As to `Cc1cccc(-c2sc(N)nc2-c2ccnc(-c3ccc(CN4CCOCC4)cc3)c2)n1`, the melting point was found to be 236 °C.

`[C-]#[N+]c1c(Cl)cc(OC)cc1Cl` had a melting point of 110 to 112 °C.

`CCCCCCCCCCCCCCCCCCOC(=O)C1(C(=O)OCCCCCCCCCCCCCCCCCC)COC2(CC(C)(C)NC(C)(C)C2)OC1` returned a melting point of 54 to 56 °C.

The compound `CC(C)(C)OC(=O)NC(Cc1cc(I)c(Oc2cc(I)c(O)c(I)c2)c(I)c1)C(=O)O` (stereo not given) had a melting point of 212 °C.

In the case of `CCOC(=O)[C@@H](CCC(=O)N1c2ccccc2C[C@H]1C(=O)OCC)NC(=O)[C@H](CCCCNSc1ncccc1[N+](=O)[O-])NC(=O)OCc1ccc2c(c1)OCO2`, the melting point lay within 130 to 135 °C.

As to `C=CCC1C=C(C)CC(C)CC(OC)C2OC(O)(C(C)CC2OC)C(O)C(=O)N2CCCCC2C(=O)OC(C(C)=CC2CCC(O)C(OC)C2)C(C)C(O)CC1O` (stereo not given), the melting point fell in the range of 130 to 150 °C.

For `CC1c2cc(C(C)(C)C)cc(C(C)(C)C)c2OP(OP2Oc3c(cc(C(C)(C)C)cc3C(C)(C)C)C(C)c3cc(C(C)(C)C)cc(C(C)(C)C)c3O2)Oc2c1cc(C(C)(C)C)cc2C(C)(C)C` (stereo not given), the melting point lay within 281 to 285 °C.

As for `COC(=O)CCc1ccc(N(c2ccc(-c3ccc(N(c4ccc(CCC(=O)OC)cc4)c4cccc5c4Cc4ccccc4-5)cc3)cc2)c2cccc3c2Cc2ccccc2-3)cc1`, the melting point was 127 to 129 °C.

Turning to `COc1ccc(C(/C=C/c2cc(I)c(OC)c(OC)c2)S(=O)(=O)C(/C=C/c2cc(I)c(OC)c(OC)c2)c2ccc(OC)cc2)cc1` (stereo not given), the melting point lay within 160 to 161 °C.

Compound `CCC1(CC)c2cc(-c3nc4ccccc4s3)ccc2-c2ccc(N(Cc3ccccc3)c3ccc4c(c3)C(CC)(CC)c3cc(-c5nc6ccccc6s5)ccc3-4)cc21` returned a melting point of 174 to 176 °C.

For `CC(C)[C@H](NC(=O)N(C)Cc1csc(NC(=O)OC(C)(C)C)n1)C(=O)N[C@@H](Cc1ccccc1)[C@H](O)[C@@H](O)[C@H](Cc1ccccc1)NC(=O)[C@@H](NC(=O)N(C)Cc1csc(NC(=O)OC(C)(C)C)n1)C(C)C`, the melting point lay in the range of 138 to 140 °C.

`CC(C)[C@H](NC(=O)N(C)Cc1nc2ccccc2[nH]1)C(=O)N[C@@H](Cc1ccccc1)[C@H](O)[C@H](O)[C@H](Cc1ccccc1)NC(=O)[C@@H](NC(=O)N(C)Cc1nc2ccccc2[nH]1)C(C)C` displayed a melting point of 107 to 109 °C.

On to `Cc1ccc(N(C)c2cccs2)cc1O`, for which the melting point lay within 131 to 133 °C.

Consider `CC(=O)OC1C(O)C(C)OC(OC2C(OC(=O)C3CCC4C(C3)OC3(CC(OC(=O)C=Cc5ccccc5)C(C)CO3)C43CO3)OC(C)C(O)C2OC(C)=O)C1O` (stereo not given), for which the melting point is 125 to 127 °C.

For the compound `CC(=O)ON=NCc1ccc(C(=O)NCCCNC(=O)[C@@H]2CCCN2S(=O)(=O)c2ccc(Cl)c(COc3cccc4c(-n5ccnc5)cc(C)nc34)c2Cl)cc1`, the melting point came out at 96 °C.

`N=S(=O)(C=Cc1ccccc1N)c1ccccc1` (stereo not given): the melting point lay within 95 to 96 °C.

`CC1(C)CC(C(O)CNc2nc(NCc3ccc(CNc4nc(NCC(O)C5CC(C)(C)NC(C)(C)C5)nc(NCC(O)C5CC(C)(C)NC(C)(C)C5)n4)cc3)nc(NCC(O)C3CC(C)(C)NC(C)(C)C3)n2)CC(C)(C)N1` (stereo not given) showed a melting point of 151 to 156 °C.

Consider `CCCCCCCC/C=C\CCCCCCCCNC(=O)OCCCCCCCCCCCCNC(=O)OC1CCN(C(=O)Oc2ccc(Oc3ccccc3)cc2)CC1`, for which the melting point fell in the range of 83 to 84 °C.

`Cc1ccc(S(=O)(=O)N2CCN(C)CCN(S(=O)(=O)c3ccc(C)cc3)CCN(S(=O)(=O)c3ccc(C)cc3)CCN(S(=O)(=O)c3ccc(C)cc3)CC2)cc1`: the melting point lay in the range of 170 to 171 °C.

Compound `Cc1cc(C(F)(F)F)ccc1Cn1nc(OC(C)C)cc1CCCOc1ncccc1CC(=O)O` yielded a melting point of 105 to 107 °C.

For `Cc1ccc(-c2c(-c3ccc(S(N)(=O)=O)cc3)[nH]c3ccccc23)cc1C`, the melting point lay in the range of 251 to 253 °C.

With `COc1cc(OC)c(/C=C/C(c2ccc(OC)c(NC(=O)CN3CCN(C)CC3)c2)S(=O)(=O)C(/C=C/c2c(OC)cc(OC)cc2OC)c2ccc(OC)c(NC(=O)CN3CCN(C)CC3)c2)c(OC)c1` (stereo not given), the melting point lay in the range of 176 to 178 °C.

The compound `CC1=C(CC(=O)O)c2cc(C#N)ccc2C1=Cc1ccc(S(C)=O)cc1` (stereo not given) showed a melting point of 160 to 165 °C.

On to `CCN(c1nc(OCCOC(=O)CCC(=O)OCCOc2nc(N(CC)C3CC(C)(C)NC(C)(C)C3)nc(N(CC)C3CC(C)(C)NC(C)(C)C3)n2)nc(N(CC)C2CC(C)(C)NC(C)(C)C2)n1)C1CC(C)(C)NC(C)(C)C1`, for which the melting point was 85 °C.
